# What was measured:
# [1] = Singlet oxygen quantum yield (DMA chemical quenching); type: physicochemical; conditions: DMA quenching in DMF; 400-800 nm, 100 mW/cm^2
# Protocol: The potential of the C14 porphyrin as a photosensitising agent was assessed on the basis of the quantum yield (φΔ) of singlet oxygen (^1O2) generation by the photoexcited triplet state of the porphyrin, namely the number of ^1O2 molecules generated per number of absorbed light photons. In the present study φΔ was measured by following the decrease in the fluorescence emission of 9,10-dimethyl-anthracene (DMA) upon its photosensitised conversion into the corresponding non-fluorescent 9,10-endoperoxide. […] In a typical experiment, a DMA solution (1.5 ml, initial absorbance around 1 at 380 nm) and porphyrin solution (1.5 ml, initial absorbance around 0.4 at 420 nm) in N,N-dimethyl-formamide (DMF) were placed in a quartz cuvette with a 1 cm optical path and irradiated with 400-800 nm light wavelengths (Teclas lamp, 100 mW cm-2) at 20° C.±2° C. under gentle magnetic stirring for different periods of time up to 20 min. The DMA fluorescence emission was recorded in the 380-550 nm wavelength range with excitation at 360 nm. The first-order rate constant of the photoprocess was obtained by plotting In F0/F as a function of the irradiation time t, where F0 and F represent the fluorescence intensity at time 0 and time t, respectively. The slope of the linear plot thus obtained allowed the rate constant of the photoprocess to be calculated. […]
# [2] = Photostability of C14 porphyrin in aqueous medium; type: physicochemical; conditions: 2.5 μM in PBS; visible light 20 mW/cm^2 for up to 60 minutes
# Protocol: The photostability of the C14 porphyrin was determined in phosphate-buffered saline (PBS) upon illumination of a 2.5 μM porphyrin solution (initial absorbance around 0.5 at 424 nm) with white light (400-800 nm), which was isolated from the emission of a quartz-halogen lamp equipped with broad band filters to eliminate UV and infrared radiation. The light source was supplied by Teclas (Lugano, Switzerland), and operated at a fluence rate of 20 mW/cm^2. During irradiation the porphyrin solution was kept in agitation on a magnetic stirrer at room temperature. The concentration of the porphyrin in the aqueous solution was monitored spectrophotometrically at different irradiation times up to 60 min, and the photostability was expressed as the percent residual absorbance referred to the absorbance measured before irradiation.
# The stability of C14 to the effect of full spectrum visible light was studied for a 2.5 μM porphyrin solution in PBS. The exposure of the porphyrin to visible light at a fluence rate of 20 mW/cm^2 for up to 60 minutes caused a decrease in the overall absorbance of less than 10%, which involved the whole set of bands in the blue, green and red spectral region. […]
# Aedes aegypti larvae = assay: C14 porphyrin toxicity in the dark; type: in vivo; conditions: for emerged adults (%) / emerged adults (count) / adult % survival after light exposure: 5 μM C14; for emerged adults (%) / emerged adults (count): pooled data; for adult % survival after light exposure: 12 h-long irradiation 1.0-4.0 mW/cm^2
# Protocol: All the experiments were carried out in a climatic chamber at 28±2° C. with a regulated photoperiod of 12 hours. Transparent plastic trays, containing 500 ml C14 solutions or spring water were employed. Typically, 5±1 days old, 3rd-early 4th instar Aedes aegypti larvae were used. All the experiments were replicated three times.
# At the end of the incubation period, dead and living larvae were counted in each tray. Larvae were then washed with tap water, and transferred to new trays containing spring water and PFP. Trays were kept in the dark until adults emerged. Adults were counted and exposed to light (intensity 1.0-4.0 mW/cm^2) for 12 hours, and their mortality was evaluated at the end of the irradiation period.
# Aedes aegypti = assay: Laboratory-scale tray larvicide test; type: in vivo; conditions: carrier mouse food; 70 mg per tray; loading concentration 5 μM; fluorescent lamp
# Protocol: Laboratory strains of Anopheles stephensi, M and S (Kisumu), chromosomal forms of An. gambiae, An. arabiensis and Aedes aegypti, as well as field-collected Anopheles spp. and Aedes spp. larvae were used. Laboratory mosquitoes were maintained at 28-30° C., >90% RH and a photoperiod of 12 h. Light intensity ranged between 0.5 mW/cm^2 (fluorescent lamp) and 185 mW/cm^2 (sunlight).
# C12 or C14 porphyrin solutions at 5-100 μM concentrations were pre-incubated at room temperature in the darkness with 15-60 mg of carrier (either Eudragit or ground mouse food or cat food) for 4-12 hours under gentle shaking. After incubation the solutions were filtered, and the loaded carrier was dried at room temperature or in an oven (45° C.).
# Batches of 60-100 L2, L3 or L4 larvae were introduced into the trays after sunset (or artificial light off). Larval mortality was evaluated the next day starting from 8.00 am, and the time required to reach at least 90% mortality was recorded. Larvae not moving or not showing an escaping response at probing were defined as dead or dying, and counted together (Tables 2 and 3). Pupae occasionally formed throughout the irradiation time were discarded and excluded from the evaluation. An equal number of batches of larvae prepared in the same way were kept in continuous darkness and mortality was evaluated similarly, to assess toxicity in the dark. […]
compound,measurement,setting,value
"CCCCCCCCCCCCCC[n+]1ccc(-c2c3nc(c(-c4cc[n+](C)cc4)c4ccc([nH]4)c(-c4cc[n+](C)cc4)c4nc(c(-c5cc[n+](C)cc5)c5ccc2[nH]5)C=C4)C=C3)cc1.Cc1ccc(S(=O)(=O)[O-])cc1.Cc1ccc(S(=O)(=O)[O-])cc1.Cc1ccc(S(=O)(=O)[O-])cc1.Cc1ccc(S(=O)(=O)[O-])cc1 [C14, meso-tri(N-methyl-pyridyl), mono(N-tetradecyl-pyridyl)porphine]",quantum yield of ^1O2 photogeneration,[1],0.46
same,decrease in the overall absorbance,[2],less than 10%
same,emerged adults (%),Aedes aegypti larvae; dark incubation 3 hours,(97.9) %
same,emerged adults (count),Aedes aegypti larvae; dark incubation 3 hours,138/141
same,emerged adults (%),Aedes aegypti larvae; dark incubation 8 hours,(100) %
same,emerged adults (count),Aedes aegypti larvae; dark incubation 8 hours,128/128
same,emerged adults (%),Aedes aegypti larvae; dark incubation 24 hours,(97.9) %
same,emerged adults (count),Aedes aegypti larvae; dark incubation 24 hours,138/141
same,adult % survival after light exposure,Aedes aegypti larvae; larval dark incubation 3 hours,100%
same,adult % survival after light exposure,Aedes aegypti larvae; larval dark incubation 8 hours,100%
same,adult % survival after light exposure,Aedes aegypti larvae; larval dark incubation 24 hours,100%
same,larval mortality in the dark,"Aedes aegypti larvae; 5 μM C14 solution, irrespectively of the duration of incubation",No mortality
same,Time to reach ≧90% mortality,Aedes aegypti,3 h
